Assay [1] deals with Ide mRNA. In words: Quantitative RT-PCR of Ide mRNA in brains of APP23 mice. The settings on record: day 18, vs vehicle, Am80/HX630 P<0.05, HX630 P=0.062 (not significant). Format: in vivo, mouse. The procedure: APP23 mice begin forming amyloid deposits when they are 6 months old, but memory deficits in the MWM test appear quite early (before 3 months of age). Here, we used 8.5-month-old male APP23 mice and their WT littermates (C57BL/6J). We used stratified random sampling to divide mice (four to six per cage) into four groups to equalize the mean body weight of the study groups: mice given 0.5 mg/kg/d Am80, those given 5 mg/kg/d HX630, those given the mixture of 0.5 mg/kg/d Am80 and 5 mg/kg/d HX630, and those given the vehicle. Am80 and HX630 were suspended in 0.5% (w/v) carboxymethylcellulose solution and were orally administered to mice at 0.5 mg/kg (Am80) or 5 mg/kg (HX630) for 17 consecutive days (once daily at 18:00). Control animals received the same volume of 0.5% (w/v) carboxymethylcellulose solution orally, without the other compounds. We set the 0.5 mg/kg/d dose for Am80 on the basis that this had been found effective in other in vivo studies, such as those by Kawahara et al. and Ishido and Shudo [37]. […]
Total RNA from the cerebral hemispheres, hippocampus, or MG5 cells was prepared by guanidinium thiocyanate-phenol-chloroform extraction. […] Quantitative real-time PCRs were carried out by using the LightCycler 1.5 system (Roche, Mannheim, Germany) with the FastStart DNA Master SYBR Green I LightCycler kit (Roche). […]

Assay [2] relates to Aβ40 and Aβ42. In words: Aβ40 and Aβ42 sandwich ELISA of TBS-soluble and TBS-insoluble brain fractions. The class given is in vivo, mouse. The settings on record: Am80 alone 3 mg/kg/d or 6 mg/kg/d for 17 days, oral. The procedure: APP23 mice begin forming amyloid deposits when they are 6 months old, but memory deficits in the MWM test appear quite early (before 3 months of age). Here, we used 8.5-month-old male APP23 mice and their WT littermates (C57BL/6J). We used stratified random sampling to divide mice (four to six per cage) into four groups to equalize the mean body weight of the study groups: mice given 0.5 mg/kg/d Am80, those given 5 mg/kg/d HX630, those given the mixture of 0.5 mg/kg/d Am80 and 5 mg/kg/d HX630, and those given the vehicle. […]
The TBS-soluble (TBS-extractable) fraction and the TBS-insoluble (but guanidine HC1-extractable) fraction from the cerebral hemispheres or hippocampus were prepared as described previously. The amounts of Aβ40 and Aβ42 in each fraction were determined by using sandwich ELISAs (294-64701 and 290-62601 (Wako), respectively), according to the manufacturer's instructions. The amounts of tumor necrosis factor-α (TNF-α) and IL-4 in the TBS-soluble fractions of cerebral cortex and hippocampus were analyzed by means of sandwich ELISAs KMC3012 (Invitrogen) and ELM-IL-4-001 (RayBiotech, Inc., Norcros, Ga., USA), respectively, according to the manufacturer's instructions. Protein concentrations were determined with the Bradford Protein Assay Reagent (Thermo Fisher Scientific Inc., Rockford, Ill., USA), with BSA as the standard.
In general terms: An ELISA detects its analyte on a solid surface through an enzyme-linked reagent.

Assay [3] relates to RA response element (RARE). In words: RARE luciferase reporter gene assay in Neuro2a cells. The settings on record: Am80 0.2-5 μM, with or without HX630 5 μM, 24 h. Format: cell-based, mouse. The procedure:
Since the effective concentration of Am80 in vivo has not been determined, we considered that a relatively high concentration of Am80 should be used in the in vitro study in order to ensure adequate stimulation. […] Moreover, the combination of HX630 (5 μM) with Am80 in the range of 0.2-5 μM also had little effect. Therefore, the concentrations of Am80 and HX630 were both set at 5 μM for the in vitro study.
Neuro2a cells were seeded in 24-well plates (2×10^5 cells/well) and transfected with 0.2 μg of pGL3-RARE-Luc (#13468; Addgene) or pGL3-Luc vector (Promega) and 0.05 μg of Renilla luciferase vector (phRL-TK) (Promega), using Effectene reagent (Qiagen) according to the manufacturer's protocol. Five hours after transfection, cells were exposed to Am80 (5 μM) and/or HX630 (5 μM) in the medium for 24 h. Luciferase activities were determined in cell lysates. Firefly luciferase activity was normalized to that of Renilla luciferase for each well.

`CN1c2ccccc2N=C(c2ccc(C(=O)O)cc2)c2cc3c(cc21)C(C)(C)CCC3(C)C` [HX630, 4-[5H-2,3-(2,5dimethyl-2,5-hexano)-5-methyldibenzo[b,e]-diazepin-11-yl]benzoic acid]: in assay [1], the “Ide mRNA level in brain” value is “slight increase”.

`CC1(C)CCC(C)(C)c2cc(NC(=O)c3ccc(C(=O)O)cc3)ccc21` [Am80, 4-{(5,6,7,8-tetrahydro-5,5,8,8-tetramethyl-2-naphthalenyl)carbamoyl}benzoic acid]: the “Aβ levels in APP23 mice, higher dose” value in assay [2] was “neither reduced Aβ levels”. In addition, in assay [3], the “RARE-luciferase activity in Neuro2a cells” value is recorded as “hardly altered”.

For the origin of these results see patent publication US9861640B2, “Medicament for treatment of Alzheimer's disease” (KEMPHYS LTD., priority 2013, dated 2018).
